{"source": "paper PMC4440699", "about": "(MedChemComm, 2014)", "key": {"[1]": {"biological_target": "T1, HDAC8 (Homo sapiens, UniProt Q9BY41)", "T1 sequence (Q9BY41 1-377)": "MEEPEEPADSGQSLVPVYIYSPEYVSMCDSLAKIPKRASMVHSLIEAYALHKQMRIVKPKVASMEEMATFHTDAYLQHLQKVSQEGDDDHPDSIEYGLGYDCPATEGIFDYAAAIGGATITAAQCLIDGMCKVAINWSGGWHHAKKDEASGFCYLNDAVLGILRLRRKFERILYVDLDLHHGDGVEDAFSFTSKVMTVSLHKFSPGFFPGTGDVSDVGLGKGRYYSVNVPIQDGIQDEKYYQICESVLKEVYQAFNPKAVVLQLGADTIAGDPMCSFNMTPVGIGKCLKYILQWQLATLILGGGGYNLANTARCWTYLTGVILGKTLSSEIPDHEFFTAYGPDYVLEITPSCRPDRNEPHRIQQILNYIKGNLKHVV", "experiment": "HDAC8 inhibition, human recombinant HDAC isoform survey", "assay_type": "biochemical"}, "[2]": {"experiment": "Solubility observations", "assay_type": "physicochemical", "conditions": "greater concentration required more than 1% DMSO"}, "[3]": {"system": "MV-4-11 leukemia cells", "experiment": "Growth inhibition of cultured MV-4-11 leukemia cells", "assay_type": "cell-based", "conditions": "for growth inhibitor activity in the MV-4-11 cell line: 24 hours exposure, 1 to 100 μM"}, "[4]": {"system": "p21^WAF1/CIP1", "experiment": "p21WAF1/CIP1 levels in MV-4-11 leukemia cells by Western blotting", "assay_type": "cell-based", "conditions": "MV-4-11 cells"}, "[5]": {"biological_target": "HDAC1 (Homo sapiens, UniProt Q13547)", "sequence (Q13547 whole entry, canonical isoform)": "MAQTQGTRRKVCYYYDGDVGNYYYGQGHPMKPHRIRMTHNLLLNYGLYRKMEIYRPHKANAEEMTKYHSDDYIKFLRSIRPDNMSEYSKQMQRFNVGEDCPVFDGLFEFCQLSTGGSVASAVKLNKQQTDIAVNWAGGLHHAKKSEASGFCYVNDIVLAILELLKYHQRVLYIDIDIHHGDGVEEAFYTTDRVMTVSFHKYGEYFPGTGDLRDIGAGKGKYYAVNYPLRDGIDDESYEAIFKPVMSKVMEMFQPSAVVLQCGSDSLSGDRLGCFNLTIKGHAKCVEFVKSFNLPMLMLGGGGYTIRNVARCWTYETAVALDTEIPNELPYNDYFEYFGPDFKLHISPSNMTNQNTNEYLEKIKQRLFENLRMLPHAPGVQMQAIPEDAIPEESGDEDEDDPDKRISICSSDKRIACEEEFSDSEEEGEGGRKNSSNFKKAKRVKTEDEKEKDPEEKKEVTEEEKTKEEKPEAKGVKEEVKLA", "experiment": "HDAC1 inhibition, human recombinant HDAC isoform survey", "assay_type": "biochemical"}, "[6]": {"system": "acetylated H3K9", "conditions": "MV-4-11 cells"}, "[7]": {"experiment": "Zinc binding affinity by isothermal calorimetry", "conditions": "ITC, 25 °C"}, "[8]": {"biological_target": "T2, HDAC10 (Homo sapiens, UniProt Q969S8)", "T2 sequence (Q969S8 1-669)": "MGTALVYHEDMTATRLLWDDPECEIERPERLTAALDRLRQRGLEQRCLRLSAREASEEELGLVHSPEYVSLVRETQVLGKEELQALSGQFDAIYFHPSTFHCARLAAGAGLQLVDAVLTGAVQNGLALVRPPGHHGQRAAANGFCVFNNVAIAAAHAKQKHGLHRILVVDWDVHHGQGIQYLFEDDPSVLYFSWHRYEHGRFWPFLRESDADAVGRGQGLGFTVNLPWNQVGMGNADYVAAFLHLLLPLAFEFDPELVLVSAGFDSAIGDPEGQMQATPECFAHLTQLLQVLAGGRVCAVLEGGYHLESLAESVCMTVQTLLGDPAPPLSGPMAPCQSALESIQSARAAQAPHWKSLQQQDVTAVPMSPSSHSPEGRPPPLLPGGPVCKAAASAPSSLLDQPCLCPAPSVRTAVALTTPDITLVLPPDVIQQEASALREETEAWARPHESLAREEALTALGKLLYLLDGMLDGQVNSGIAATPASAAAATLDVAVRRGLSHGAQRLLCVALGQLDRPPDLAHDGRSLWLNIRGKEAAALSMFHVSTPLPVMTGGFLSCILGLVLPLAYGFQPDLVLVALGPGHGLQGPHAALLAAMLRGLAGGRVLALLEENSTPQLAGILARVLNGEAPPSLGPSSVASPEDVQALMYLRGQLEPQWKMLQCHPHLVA", "experiment": "HDAC10 inhibition, human recombinant HDAC isoform survey", "assay_type": "biochemical", "conditions": "from % inhibition at 20 μM"}}}
{"smiles": "O=C(NC(c1ccccc1)c1ccccc1)c1coc(-c2ccccc2O)n1", "note": "[Compound 10]", "values": [{"measurement": "inhibitory activity against HDAC8", "setting": "[1]", "result": "very poor inhibitory activity"}, {"measurement": "solution concentration attainable without more than 1% DMSO", "setting": "[2]", "result": "≤ 20", "unit": "µM"}, {"measurement": "difference in cellular IC50 value against MV4-11 cells between SAHA and compound 10", "setting": "[3]; SAHA 0.7 μM vs 10 7.5 μM", "result": 10.7, "unit": "fold"}, {"measurement": "amount of p21Waf1/CIP1 induced relative to 0.5 μM of SAHA", "setting": "[4]", "result": "comparable amount"}, {"measurement": "p21^WAF1/CIP1 expression", "setting": "[4]; concentrations between 1.0 and 10.0 μM", "result": "dose-dependent increase"}, {"measurement": "IC50", "setting": "[5]", "result": "< 20", "unit": "µM"}, {"measurement": "amount of acetylated H3K9 induced relative to 0.5 μM of SAHA", "setting": "[6]", "result": "comparable amount"}, {"measurement": "concentration producing an increase in H3K9 acetylation equivalent to 0.5 μM SAHA", "setting": "[6]; Western blot", "result": 2.5, "unit": "µM"}, {"measurement": "concentration with measurable increase in cellular levels of acetylated H3K9", "setting": "[6]; Western blot", "result": "≥ 2.5", "unit": "µM"}, {"measurement": "change in H3K9 acetylation", "setting": "[6]; concentrations between 1.0 and 10 μM", "result": "dose-dependent change in acetylation"}, {"measurement": "ΔG, binding to Zn^++", "setting": "[7]", "result": -5.103, "unit": "kcal/mol"}, {"measurement": "KA, binding to Zn^++", "setting": "[7]; compound in methanol, zinc in 50mM HEPES pH 7.0", "result": "4,937 M^-1"}]}
{"smiles": "O=C(NCCC(c1ccccc1)c1ccccc1)c1coc(-c2ccccc2O)n1", "note": "[Compound 12]", "values": [{"measurement": "growth inhibitor activity in the MV-4-11 cell line", "setting": "[3]", "result": "inactive"}]}
{"smiles": "O=C(Nc1ccc(-c2ccccc2)cc1)c1coc(-c2ccccc2O)n1", "note": "[Compound 13]", "values": [{"measurement": "growth inhibitor activity in the MV-4-11 cell line", "setting": "[3]", "result": "inactive"}]}
{"smiles": "O=C(NCc1ccc(-c2ccccc2)cc1)c1coc(-c2ccccc2O)n1", "note": "[Compound 14]", "values": [{"measurement": "growth inhibitor activity in the MV-4-11 cell line", "setting": "[3]", "result": "inactive"}]}
{"smiles": "O=C(NCCCCNC(=S)NCCC(c1ccccc1)c1ccccc1)c1coc(-c2ccccc2O)n1", "note": "[Compound 19]", "values": [{"measurement": "isoform selectivity", "setting": "[8]", "result": "moderately selective for HDAC10"}]}
{"smiles": "O=C(Nc1ccccc1)c1ccc(CNC(=O)c2coc(-c3ccccc3O)n2)cc1", "note": "[Compound 23]", "values": [{"measurement": "isoform selectivity", "setting": "[8]", "result": "moderately selective for HDAC10"}]}
{"smiles": "O=C(CNC(=O)c1coc(-c2ccccc2O)n1)Nc1ccccc1", "note": "[Compound 24]", "values": [{"measurement": "isoform selectivity", "setting": "[8]", "result": "moderately selective for HDAC10"}]}
